Assay results taken from patent US20190282558A1, “Methods of Treating Zika Virus Infection” (Emergent Virology LLC, priority 2016, published 2019).
pIC50: −log10 of the molar value. Where two headings read alike, the source gives them in different places.

Assays:
Assay type in all cases: cell-based
[1] = system: Zika virus, PR ABC strain (ZIKV, PR2015); assay: Yield reduction assay followed by plaque assay in Vero cells, ZIKV PR2015; details: 120 h, read-out: ZIKV, PR2015 IC50
Description: (§1) The iminosugar compounds set forth in Table 4, below, were evaluated for antiviral activity against Zika virus, FSS 13025 strain (ZIKV, Cambodia 2010) and PR ABC strain (ZIKV, PR2015) in an yield reduction assay followed by a plaque assay.
In the yield reduction assay, Vero cells were seeded in 24-well plates and incubated overnight. The next day, serial dilutions of a given compound were prepared at 200 μM, 100 μM, 20 μM, 4 μM, 0.8 μM, 0.16 μM, 0.03 μM, and 0.01 μM. Growth medium was removed from the cells and the serial dilutions of the given compound were added in duplicate for one hour. Zika virus, PR ABC strain (ZIKV, PR2015) was added at a multiplicity of infection (MOI) of 0.01 for one hour. Growth medium was added to 1 mL and the cells were incubated for 5 days. Thereafter, cell supernatants were harvested, cleared of cell debris by centrifugation, and stored at −80° C. until further analysis for viral content in a plaque assay.
Plaque assays were performed by seeding Vero cells in 24-well plates and allowing the cells to adhere overnight. The next day each of the harvested supernatants from the yield-reduction assay were serially diluted 10-fold, growth medium was removed from the cells, and the adhered cells were infected with the dilutions of the supernatants for 1 h. The cells were incubated with 0.8% carboxymethyl cellulose (CMC) for 3 days. At the end of the incubation, CMC overlay was removed, and the cells were permeabilized with an 80%/20% (V/V) mixture of ethanol and methanol for 10 min at −20° C. Plaques were visualized by performing an immunostaining assay with monoclonal 4G2 (ATCC) which was detected by HRP-conjugated goat anti-mouse antibody and visualized using HRP-conjugated goat anti-mouse polyclonal antibodies. Relative inhibition was calculated using IDBS XLFIT analysis program.
(§2) The duplicate titers for virus-only (vehicle control) were averaged and used as 0% inhibition. Efficacy data for the compounds were reported as the mean of the duplicates, including the standard deviation (SD) and coefficient of variation (% CV). FIGS. 2A, 2B, 3A, 3B, 4A, 4B, 5A, 5B, 6A, 6B, 7A, 7B, 8A, 8B, 9A, 9B, 10A, 10B, 11A, 11B, 12A, 12B, 13A, 13B, 14A, 14B, and 15 show the in vitro inhibitory effect of the iminosugar compounds against Zika virus, FSS 13025 strain, as set forth in Table 3 below.

[2] = system: Zika virus, FSS 13025 strain (ZIKV, Cambodia 2010); assay: Yield reduction assay followed by plaque assay in Vero cells, ZIKV Cambodia 2010; details: for pIC50: Zika virus, 96 h, read-out: ZIKV, Cambodian 2010 IC50; for IC50 (summary in words): summary of Table 3
Description: as §1
In the yield reduction assay, Vero cells were seeded in 24-well plates and incubated overnight. The next day, serial dilutions of a given compound were prepared at 300 μM, 100 μM, 30 μM, 10 μM, and 3.0 μM. Growth medium was removed from the cells and the serial dilutions of the given compound were added in duplicate for one hour. Zika virus, FSS 13025 strain (ZIKV, Cambodia 2010) was added at a multiplicity of infection (MOI) of 0.01 for one hour. Growth medium was added to 1 mL and the cells were incubated for 4 days. Thereafter, cell supernatants were harvested, cleared of cell debris by centrifugation, and stored at −80° C. until further analysis for viral content in a plaque assay.
Plaque assays were performed by seeding Vero cells in 24-well plates and allowing the cells to adhere overnight. The next day each of the harvested supernatants from the yield-reduction assay were serially diluted 10-fold, growth medium was removed from the cells, and the adhered cells were infected with the dilutions of the supernatants for 1 h. Methylcellulose was added and the cells were incubated for 3 days. Plaques were visualized by staining the cell monolayer with crystal violet. Relative inhibition was calculated using IDBS XLFIT analysis program.
as §2

[3] = In vitro cell cytotoxicity (CellTiter-Glo) in Vero cells; details: African green monkey, 3-5 days, max concentration 500 or 1000 μM, * = average of two values
[4] = Vero cells, MOI 0.01, 4 days, plaque assay of supernatants, * = average of multiple data points
[5] = Vero cells, MOI 0.01, 5 days, plaque assay with immunostaining, * = average of multiple data points

Compound | pIC50 [2, 4] | CC50 [3] [µM] | further results
CCCCCCCCCN1C[C@H](O)[C@@H](O)[C@H](O)[C@H]1CO [UV-2, (2R,3R,4R,5S)-2-(hydroxymethyl)-1-nonylpiperidine-3,4,5-triol] | – | – | pIC50 ([1]; Vero): 4.02
[N-]=[N+]=Nc1ccc(NCCCCN2C[C@H](O)[C@@H](O)[C@H](O)[C@H]2CO)c([N+](=O)[O-])c1 [Compound 17, (2R,3R,4R,5S)-1-(4-((4-azido-2-nitrophenyl)amino)butyl)-2-(hydroxymethyl)piperidine-3,4,5-triol] | 4.52 | 350 | IC50 (summary in words) [2]: low micromolar activity
CCCCN1C[C@H](O)[C@@H](O)[C@H](O)[C@H]1CO [UV-1, (2R,3R,4R,5S)-1-butyl-2-(hydroxymethyl)piperidine-3,4,5-triol] | – | – | pIC50 [1, 5]: 5.52
O=[N+]([O-])c1cc(-n2nccn2)ccc1NCCCCCCN1C[C@H](O)[C@@H](O)[C@H](O)[C@H]1CO [Compound 3, (2R,3R,4R,5S)-2-(hydroxymethyl)-1-(6-((2-nitro-4-(2H-1,2,3-triazol-2-yl)phenyl)amino)hexyl)piperidine-3,4,5-triol] | 3.98 | 245 | –
O=[N+]([O-])c1cc(-c2ccccn2)ccc1NCCCCCCN1C[C@H](O)[C@@H](O)[C@H](O)[C@H]1CO [Compound 22, (2R,3R,4R,5S)-2-(hydroxymethyl)-1-(6-((2-nitro-4-(pyridin-2-yl)phenyl)amino)hexyl)piperidine-3,4,5-triol] | 4.33 | 99.8 | IC50 (summary in words) [2]: low micromolar activity
O=[N+]([O-])c1cc(NCCCCCCN2C[C@H](O)[C@@H](O)[C@H](O)[C@H]2CO)ccc1-n1cccn1 [Compound 13, (2R,3R,4R,5S)-2-(hydroxymethyl)-1-(6-((3-nitro-4-(1H-pyrazol-1-yl)phenyl)amino)hexyl)piperidine-3,4,5-triol] | < 4.00 | > 1000 | –
OC[C@@H]1[C@@H](O)[C@H](O)[C@@H](O)CN1CCCCCCNc1ccc(-n2ncnn2)cc1 [Compound 19, (2R,3R,4R,5S)-1-(6-((4-(2H-tetrazol-2-yl)phenyl)amino)hexyl)-2-(hydroxymethyl)piperidine-3,4,5-triol] | 3.85 | 953 | –
OC[C@@H]1[C@@H](O)[C@H](O)[C@@H](O)CN1CCCCCCNc1ncc2[nH]cnc2n1 [Compound 20, (2R,3R,4R,5S)-1-(6-((7H-purin-2-yl)amino)hexyl)-2-(hydroxymethyl)piperidine-3,4,5-triol] | – | 832 | pIC50 [1, 5]: < 4.00
N/C(=N/O)c1ccc(NCCCCCCN2C[C@H](O)[C@@H](O)[C@H](O)[C@H]2CO)c([N+](=O)[O-])c1 [Compound 4, (E)-N′-hydroxy-3-nitro-4-((6-((2R,3R,4R,5S)-3,4,5-trihydroxy-2-(hydroxymethyl)piperidin-1-yl)hexyl)amino)benzimidamide] | 4.11 | > 1000 | –
O=[N+]([O-])c1cc(-c2cccnn2)ccc1NCCCCCCN1C[C@H](O)[C@@H](O)[C@H](O)[C@H]1CO [Compound 23, (2R,3R,4R,5S)-2-(hydroxymethyl)-1-(6-((2-nitro-4-(pyridazin-3-yl)phenyl)amino)hexyl)piperidine-3,4,5-triol] | < 4.00 | 5190 | –
O=[N+]([O-])c1cc(-c2ncccn2)ccc1NCCCCCCN1C[C@H](O)[C@@H](O)[C@H](O)[C@H]1CO [Compound 7, (2R,3R,4R,5S)-2-(hydroxymethyl)-1-(6-((2-nitro-4-(pyrimidin-2-yl)phenyl)amino)hexyl)piperidine-3,4,5-triol] | 4.72 | > 1000 | IC50 (summary in words) [2]: low micromolar activity
O=[N+]([O-])c1ccc(N2CCNCC2)cc1NCCCCCCN1C[C@H](O)[C@@H](O)[C@H](O)[C@H]1CO [Compound 10, (2R,3R,4R,5S)-2-(hydroxymethyl)-1-(6-((2-nitro-5-(piperazin-1-yl)phenyl)amino)hexyl)piperidine-3,4,5-triol] | < 4.00 | > 1000 | –
O=[N+]([O-])c1cc(-c2cccnc2)ccc1NCCCCCCN1C[C@H](O)[C@@H](O)[C@H](O)[C@H]1CO [Compound 25, (2R,3R,4R,5S)-2-(hydroxymethyl)-1-(6-((2-nitro-4-(pyridin-3-yl)phenyl)amino)hexyl)piperidine-3,4,5-triol] | 4.77 | 101 | IC50 (summary in words) [2]: low micromolar activity
CCCOCCCCCCN1C[C@H](O)[C@@H](O)[C@H](O)[C@H]1CO [UV-3, (2R,3R,4R,5S)-2-(hydroxymethyl)-1-(6-propoxyhexyl)piperidine-3,4,5-triol] | – | – | pIC50 [1, 5]: < 4.00
OC[C@@H]1[C@@H](O)[C@H](O)[C@@H](O)CN1CCCCCCNc1c(F)cc(F)cc1F [Compound 18, (2R,3R,4R,5S)-2-(hydroxymethyl)-1-(6-((2,4,6-trifluorophenyl)amino)hexyl)piperidine-3,4,5-triol trifluoroacetic acid] | – | 413 | pIC50 ([2]; Vero): < 4.00
CN(C)Cc1ccc([N+](=O)[O-])c(NCCCCCCN2C[C@H](O)[C@@H](O)[C@H](O)[C@H]2CO)c1 [Compound 16, (2R,3R,4R,5S)-1-(6-((5-((dimethylamino)methyl)-2-nitrophenyl)amino)hexyl)-2-(hydroxymethyl)piperidine-3,4,5-triol] | < 4.00 | > 1000 | –
O=[N+]([O-])c1cc(-n2ncnn2)ccc1NCCCCCCN1C[C@H](O)[C@@H](O)[C@H](O)[C@H]1CO [Compound 6, (2R,3R,4R,5S)-2-(hydroxymethyl)-1-(6-((2-nitro-4-(2H-tetrazol-2-yl)phenyl)amino)hexyl)piperidine-3,4,5-triol] | – | 953 | –
O=[N+]([O-])c1ccc(-n2cnnn2)cc1NCCCCCCN1C[C@H](O)[C@@H](O)[C@H](O)[C@H]1CO [Compound 9, (2R,3R,4R,5S)-2-(hydroxymethyl)-1-(6-((2-nitro-5-(1H-tetrazol-1-yl)phenyl)amino)hexyl)piperidine-3,4,5-triol] | < 4.00 | > 1000 | –
O=[N+]([O-])c1cc(-c2ccncn2)ccc1NCCCCCCN1C[C@H](O)[C@@H](O)[C@H](O)[C@H]1CO [Compound 24, (2R,3R,4R,5S)-2-(hydroxymethyl)-1-(6-((2-nitro-4-(pyrimidin-4-yl)phenyl)amino)hexyl)piperidine-3,4,5-triol] | < 4.00 | 816 | –
O=[N+]([O-])c1cc(CN2CCCO2)ccc1NCCCCCCN1C[C@H](O)[C@@H](O)[C@H](O)[C@H]1CO [Compound 21, (2R,3R,4R,5S)-2-(hydroxymethyl)-1-(6-((4-(isoxazolidin-2-ylmethyl)-2-nitrophenyl)amino)hexyl)piperidine-3,4,5-triol] | < 4.00 | 2130 | –
O=[N+]([O-])c1cc(NCCCCCCN2C[C@H](O)[C@@H](O)[C@H](O)[C@H]2CO)ccc1-n1cnnn1 [Compound 14, (2R,3R,4R,5S)-2-(hydroxymethyl)-1-(6-((3-nitro-4-(1H-tetrazol-1-yl)phenyl)amino)hexyl)piperidine-3,4,5-triol] | 4.05 | > 1000 | –
O=[N+]([O-])c1cc(-n2cnnn2)ccc1NCCCCCCN1C[C@H](O)[C@@H](O)[C@H](O)[C@H]1CO [Compound 5, (2R,3R,4R,5S)-2-(hydroxymethyl)-1-(6-((2-nitro-4-(1H-tetrazol-1-yl)phenyl)amino)hexyl)piperidine-3,4,5-triol] | 4.16 | > 1000 | –
